Measured values from patent US20090005390A1, “NOVEL QUINUCLIDINE DERIVATIVES AND THEIR USE” (N[…]/S, priority 2002, published 2009).
pIC50: −log10 of the molar value.

Experiments:
[1] = target: T1, α7-subtype of nicotinic receptors (Rattus norvegicus, UniProt Q05941); assay: In vitro inhibition of 3H-α-bungarotoxine binding in rat brain; settings: rat cerebral cortex homogenate; 3H-α-bungarotoxine 2 nM; 2 hours at 37° C.
T1 construct: Cerebral cortices from male Wistar rats (150-250 g) are homogenised; from tissue; host or cells: rat cerebral cortex membrane homogenate
T1 sequence (Q05941 23-502): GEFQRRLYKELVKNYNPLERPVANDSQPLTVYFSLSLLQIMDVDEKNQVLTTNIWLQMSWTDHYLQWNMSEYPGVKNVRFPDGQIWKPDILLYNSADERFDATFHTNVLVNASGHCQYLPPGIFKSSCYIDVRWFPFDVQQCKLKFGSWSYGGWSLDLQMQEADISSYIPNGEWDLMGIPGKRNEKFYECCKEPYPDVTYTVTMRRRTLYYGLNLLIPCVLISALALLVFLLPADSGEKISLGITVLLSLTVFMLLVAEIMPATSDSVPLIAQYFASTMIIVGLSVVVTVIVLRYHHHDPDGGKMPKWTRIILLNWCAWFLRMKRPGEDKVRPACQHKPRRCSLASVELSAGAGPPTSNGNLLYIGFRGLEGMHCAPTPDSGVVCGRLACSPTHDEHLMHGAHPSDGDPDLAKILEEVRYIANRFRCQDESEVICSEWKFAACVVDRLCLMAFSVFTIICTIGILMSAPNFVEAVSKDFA

## O=C(O)/C=C/C(=O)O.c1ccc2cc(OC3CN4CCC3CC4)ccc2c1 (racemic)
other
  melting point: 140.9 to 141.6 °C

## O=C(O)/C=C/C(=O)O.c1ccc(-c2ccccc2OC2CN3CCC2CC3)cc1 (racemic)
other
  melting point: 125.4 °C

## O=C(O)/C=C/C(=O)O.c1cnc2ccc(OC3CN4CCC3CC4)cc2c1 (racemic)
other
  melting point: 146 to 147 °C

## O=C(O)/C=C/C(=O)O.c1cc2c(cc1OC1CN3CCC1CC3)CCC2 (racemic)
other
  melting point: 149.3 to 150.5 °C

## O=C(O)/C=C/C(=O)O.c1cc2c(cc1OC1CN3CCC1CC3)CCCC2 (racemic)
other
  melting point: 109.7 to 111.3 °C

## O=C(O)/C=C/C(=O)O.c1ccc2nc(OC3CN4CCC3CC4)ccc2c1 (racemic)
other
  melting point: 160 to 160.5 °C

## Brc1cnc(OC2CN3CCC2CC3)s1.O=C(O)/C=C/C(=O)O (racemic)
other
  melting point: 157.8 to 162.1 °C

## O=C(O)/C=C/C(=O)O.c1ccc2c(OC3CN4CCC3CC4)nsc2c1 (racemic)
other
  melting point: 172.3 to 173.6 °C

## Brc1ccc(OC2CN3CCC2CC3)nn1.O=C(O)/C=C/C(=O)O (racemic)
other
  melting point: 152.8 °C

## Clc1ccc(OC2CN3CCC2CC3)nn1.O=C(O)/C=C/C(=O)O (racemic)
other
  melting point: 164 to 164.5 °C

## COc1nc2ccccc2nc1OC1CN2CCC1CC2.O=C(O)/C=C/C(=O)O (racemic)
other
  melting point: 168.5 to 170 °C

## Clc1nc2ccccc2nc1OC1CN2CCC1CC2.O=C(O)/C=C/C(=O)O (racemic)
other
  melting point: 120.8 to 122.1 °C

## Cn1c(OC2CN3CCC2CC3)nc2ccccc21.O=C(O)/C=C/C(=O)O (racemic)
other
  melting point: 184.9 to 185.9 °C

## O=C(O)/C=C/C(=O)O.c1ccc2oc(OC3CN4CCC3CC4)nc2c1 (racemic)
other
  melting point: 187.2 to 188.8 °C

## O=C(O)/C=C/C(=O)O.c1ccc2nc(OC3CN4CCC3CC4)cnc2c1 (racemic)
other
  melting point: 127.7 to 128.5 °C

## O=C(O)/C=C/C(=O)O.c1ccc(-c2ccc(OC3CN4CCC3CC4)nn2)cc1 (racemic)
other
  melting point: 168.5 to 172 °C

## O=C(O)/C=C/C(=O)O.c1ccc(-c2nnc(OC3CN4CCC3CC4)s2)cc1 (racemic)
other
  melting point: 168.5 to 172 °C

## C.I.c1ccc2nc(OC3CN4CCC3CC4)cnc2c1 (racemic)
other
  melting point: 229 to 230 °C

## C.I.c1ccc2nc(OC3CN4CCC3CC4)ccc2c1 (racemic)
other
  melting point: 156.6 to 175.2 °C

## C.I.c1ccc2c(OC3CN4CCC3CC4)nsc2c1 (racemic)
other
  melting point: 180.1 to 186.4 °C

## O=C(O)/C=C/C(=O)O.c1cc(-c2ccc(OC3CN4CCC3CC4)nn2)co1 (racemic)
other
  melting point: 224.8 to 225.4 °C

## O=C(O)/C=C/C(=O)O.c1cncc(-c2ccc(OC3CN4CCC3CC4)nn2)c1 (racemic)
other
  melting point: 137.2 to 143.2 °C

## Fc1ccc(-c2cnc(OC3CN4CCC3CC4)s2)c(F)c1.O=C(O)/C=C/C(=O)O (racemic)
other
  melting point: 84.3 to 86.3 °C

## O=C(O)/C=C/C(=O)O.c1coc(-c2ccc(OC3CN4CCC3CC4)nn2)c1 (racemic)
other
  melting point: 175.8 to 178.2 °C

## O=C(O)/C=C/C(=O)O.c1ccc(-c2ccc(OC3CN4CCC3CC4)cc2)cc1 (racemic) [Compound A2, (±)-3-(4-Phenylphenyloxy)-1-aza-bicyclo[2.2.2]octane fumaric acid salt]
[1]
  pIC50: 6.80
other
  melting point: 173.5 to 185.1 °C

## Clc1ccc2nc(OC3CN4CCC3CC4)sc2c1.O=C(O)/C=C/C(=O)O (racemic) [Compound B2, (±)-3-(6-Chloro-benzothiazol-2-yloxy)-1-aza-bicyclo[2.2.2]octane fumaric acid salt]
[1]
  pIC50: 6.74
other
  melting point: 203 to 205 °C

## O=C(O)/C=C/C(=O)O.c1ccc2sc(OC3CN4CCC3CC4)nc2c1 (racemic) [Compound B3, (±)-3-(Benzothiazol-2-yloxy)-1-aza-bicyclo[2.2.2]octane fumaric acid salt]
[1]
  pIC50: 6.77
other
  melting point: 173.7 to 174.2 °C

## O=C(O)/C=C/C(=O)O.c1cc(-c2nnc(OC3CN4CCC3CC4)s2)cs1 (racemic) [Compound B17, (±)-3-[5-(3-Thienyl)-1,3,4-thiadiazol-2-yloxy]-1-aza-bicyclo[2.2.2]octane fumaric acid salt]
[1]
  pIC50: 6.82
other
  melting point: 186 to 188 °C

## O=C(O)/C=C/C(=O)O.c1ccc(-c2cnc(OC3CN4CCC3CC4)s2)cc1 (racemic) [Compound D1, (±)-3-(5-Phenyl-thiazol-2-yloxy)-1-aza-bicyclo[2.2.2]octane fumaric acid salt]
[1]
  pIC50: 7.28
other
  melting point: 170.9 to 172.2 °C

## O=C(O)/C=C/C(=O)O.c1cc(-c2cnc(OC3CN4CCC3CC4)s2)cs1 (racemic) [Compound D3, (±)-3-[5-(3-Thienyl)-thiazol-2-yloxy]-1-aza-bicyclo[2.2.2]octane fumaric acid salt]
[1]
  pIC50: 6.96
other
  melting point: 68.5 to 74.3 °C

## O=C(O)/C=C/C(=O)O.c1csc(-c2cnc(OC3CN4CCC3CC4)s2)c1 (racemic) [Compound D4, (±)-3-[5-(2-Thienyl)-thiazol-2-yloxy]-1-aza-bicyclo[2.2.2]octane fumaric acid salt]
[1]
  pIC50: 7.70
other
  melting point: 152.6 to 154.9 °C

## O=C(O)/C=C/C(=O)O.c1cc(-c2cnc(OC3CN4CCC3CC4)s2)co1 (racemic) [Compound D5, (±)-3-[5-(3-Furanyl)-thiazol-2-yloxy]-1-aza-bicyclo[2.2.2]octane fumaric acid salt]
[1]
  pIC50: 7.32
other
  melting point: 127.6 to 136.2 °C

## O=C(O)/C=C/C(=O)O.c1cncc(-c2cnc(OC3CN4CCC3CC4)s2)c1 (racemic) [Compound D6, (±)-3-[5-(3-Pyridyl)-thiazol-2-yloxy]-1-aza-bicyclo[2.2.2]octane fumaric acid salt]
[1]
  pIC50: 6.74
other
  melting point: 82.7 to 86 °C

## O=C(O)/C=C/C(=O)O.c1cc(-c2ccc(OC3CN4CCC3CC4)nn2)cs1 (racemic) [Compound D7, (±)-3-[6-(3-Thienyl)-pyridazin-3-yloxy]-1-aza-bicyclo[2.2.2]octane fumaric acid salt]
[1]
  pIC50: 6.89
other
  melting point: 197.9 °C

## O=C(O)/C=C/C(=O)O.c1csc(-c2ccc(OC3CN4CCC3CC4)nn2)c1 (racemic) [Compound D8, (±)-3-[6-(2-Thienyl)-pyridazin-3-yloxy]-1-aza-bicyclo[2.2.2]octane fumaric acid salt]
[1]
  pIC50: 7.28
other
  melting point: 180.3 to 191.1 °C
